Measurements: patent US9416128B2, “Fused heterocyclic compounds as ion channel modulators” (Gilead Sciences, Inc., priority 2013, dated 2016)
Read-outs that look alike come from different tables or passages of the source.

Assays:
[1] = target: hNaV1.1 (SCN1A) (Homo sapiens, UniProt P35498); assay: Use-dependent inhibition of the CNS NaV1.1 sodium channel; assay type: cell-based; conditions: % inhibition, 25 Hz; for inhibition at 1 µM: use-dependent block at 1 uM, read-out: Nav1.1 UDB 25 Hz 1 uM; for inhibition at 10 µM: use-dependent block at 10 uM, read-out: Nav1.1 UDB 25 Hz 10 uM
Protocol: HEK-293 cells stably expressing wild-type (WT) hNaV1.1 (SCN1A, NCBI# AB09354) were obtained from Millipore (Cat. # CYL3009) were used to record INa. Cells are maintained with standard tissue culture procedures and stable channel expression is maintained with 400 ug/mL G418 in the culture medium. Unless otherwise noted, all reagents are purchased from Sigma-Aldrich (St Louis, Mo., U.S.A.).
Assays measuring Use-Dependent Block (UDB) of NaV1.2 are performed on an automated electrophysiology platform, QPatch 16X or QPatch HT (Sophion Bioscience, Copenhagen, Denmark), using the whole cell patch clamp technique to measure currents through the cell membrane. Series resistance compensation is set to 100% and series resistance and whole-cell compensation are performed automatically. Currents stored in the Sophion Bioscience Oracle database (Sophion Bioscience, Copenhagen, Denmark). Analysis is performed using QPatch Assay software and data are compiled in Excel 2010 (Microsoft, Seattle, Wash., U.S.A.).
The internal (pipette) solution consists of (in mM) 105 CsF, 10 NaF, 20 CsCl, 2 EGTA, 10 HEPES, 10 Dextrose with a pH of 7.35 and osmolarity of 300 mOsmol/kg. The external (bath) solution contains in (mM): 145 NaCl, 4 KCl, 1.8 CaCl2, 1 MgCl2, 10 dextrose, 10 HEPES, with a pH of 7.35 and osmolarity of 310 mOsmol/kg. Experiments are carried out at 23-25° C.
Compound stocks are routinely made by the Gilead Sample Bank in vials to 10 mM in dimethyl sulfoxide (DMSO). In some cases, when compounds are not soluble in DMSO, they are made in 100% ethanol. Stocks are sonicated as necessary. […]
Cells are allowed to stabilize for 10 min after establishment of the whole-cell configuration before current is measured. The test compound is applied 2 times at 60 second intervals. After the second compound addition, a 200 second wait period was imposed to allow for equilibration.
Leak currents are subtracted by using an online P/4 procedure and all currents are low-pass Bessel filtered at 5 kHz and digitized at […].
Use-dependent block of NaV1.2 peak current is measured during pulse number 20 of a voltage pulse train (0 mV, 20 ms, 20 pulses, 25 Hz) from a holding potential of −120 mV. Currents are normalized to the peak current recorded in response to the first pulse in each frequency train. The voltage protocol for UDB was performed in the absence and presence of compound and percentage inhibition was calculated with respect to the compound free condition. Results are presented as mean percentage inhibition and data analysis is performed using QPatch Assay Software 4.0, and Excel 2002 (Microsoft, Seattle, Wash., U.S.A.).

[2] = target: wild-type human cardiac sodium channel, hNaV 1.5 (Peak INa) (Homo sapiens, UniProt Q14524); assay: Peak INa screening assay (tonic block and use-dependent block); assay type: cell-based
Protocol: The assay uses an HEK293 (human embryonic kidney) cell line heterologously expressing the wild-type human cardiac sodium channel, hNaV 1.5, purchased from Millipore (Billerica, Mass.). No beta subunits were coexpressed with the Na channel alpha subunit. Cells are maintained with standard tissue culture procedures and stable channel expression is maintained with 400 μg/mL Geneticin in the culture medium. […] Currents are digitized at 25 kHz and low-pass filtered at 5 kHz and stored in the Sophion Bioscience Oracle database (Sophion Bioscience, Copenhagen, Denmark). Analysis is performed using QPatch Assay software and data are compiled in Excel 2010 (Microsoft, Seattle, Wash., U.S.A.). Compound stocks are routinely made by the Gilead Sample Bank in vials to 10 mM in dimethyl sulfoxide (DMSO). In some cases, when compounds are not soluble in DMSO, they are made in 100% ethanol. Stocks are sonicated as necessary. The extracellular solution for screening Late INa is composed of: 140 mM NaCl, 4 mM KCl, 1.8 mM CaCl2, 1 mM MgCl2, 10 mM HEPES and 10 mM Dextrose with pH adjusted to 7.35 using NaOH. The intracellular solution contains: 105 mM CsF, 20 mM CsCl, 10 NaF, 2 mM EGTA, 10 mM HEPES and 10 mM Dextrose with pH adjusted to 7.35 with CsOH. Compounds are diluted in extracellular solution using a MicroLab Nimbus (Hamilton Robotics, Reno, Nev.) to between 0.3 and 3 μM in glass vials and transferred to glass well plates before robotic addition to the cells. […] It is contemplated that the compounds of Formula I avoid significant block of peak INa. […] The intracellular solution used for the Peak INa assay is the same as outlined for the Late INa assay (see above). After establishing the whole cell recording configuration, channels were stimulated to open with low frequency (0.1 Hz) for so that the recording can be monitored and the extent to which the recording has stabilized can be assessed. The test compound is then applied at 1 or 3 μM was added 2 times at 60 second intervals. After the second compound addition, a 200 second wait period was imposed to allow for equilibration. Voltage protocols for TB and UDB are were performed in the absence and presence of compound and TB and UDB are calculated with respect to the compound free condition. Both TB and UDB were analyzed by incorporating rundown correction for the peak INa.

[3] = % inhibition, use-dependent block of peak INa at 3 uM, 3 Hz, pulse 50, read-out: Nav1.5 Peak UDB 3 Hz 3 uM
[4] = read-out: Nav1.5 Peak TB 3 uM, % inhibition, tonic block of peak INa at 3 uM, 0.1 Hz, holding -100 mV

Sequence of wild-type human cardiac sodium channel, hNaV 1.5 (Peak INa) (Q14524 whole entry): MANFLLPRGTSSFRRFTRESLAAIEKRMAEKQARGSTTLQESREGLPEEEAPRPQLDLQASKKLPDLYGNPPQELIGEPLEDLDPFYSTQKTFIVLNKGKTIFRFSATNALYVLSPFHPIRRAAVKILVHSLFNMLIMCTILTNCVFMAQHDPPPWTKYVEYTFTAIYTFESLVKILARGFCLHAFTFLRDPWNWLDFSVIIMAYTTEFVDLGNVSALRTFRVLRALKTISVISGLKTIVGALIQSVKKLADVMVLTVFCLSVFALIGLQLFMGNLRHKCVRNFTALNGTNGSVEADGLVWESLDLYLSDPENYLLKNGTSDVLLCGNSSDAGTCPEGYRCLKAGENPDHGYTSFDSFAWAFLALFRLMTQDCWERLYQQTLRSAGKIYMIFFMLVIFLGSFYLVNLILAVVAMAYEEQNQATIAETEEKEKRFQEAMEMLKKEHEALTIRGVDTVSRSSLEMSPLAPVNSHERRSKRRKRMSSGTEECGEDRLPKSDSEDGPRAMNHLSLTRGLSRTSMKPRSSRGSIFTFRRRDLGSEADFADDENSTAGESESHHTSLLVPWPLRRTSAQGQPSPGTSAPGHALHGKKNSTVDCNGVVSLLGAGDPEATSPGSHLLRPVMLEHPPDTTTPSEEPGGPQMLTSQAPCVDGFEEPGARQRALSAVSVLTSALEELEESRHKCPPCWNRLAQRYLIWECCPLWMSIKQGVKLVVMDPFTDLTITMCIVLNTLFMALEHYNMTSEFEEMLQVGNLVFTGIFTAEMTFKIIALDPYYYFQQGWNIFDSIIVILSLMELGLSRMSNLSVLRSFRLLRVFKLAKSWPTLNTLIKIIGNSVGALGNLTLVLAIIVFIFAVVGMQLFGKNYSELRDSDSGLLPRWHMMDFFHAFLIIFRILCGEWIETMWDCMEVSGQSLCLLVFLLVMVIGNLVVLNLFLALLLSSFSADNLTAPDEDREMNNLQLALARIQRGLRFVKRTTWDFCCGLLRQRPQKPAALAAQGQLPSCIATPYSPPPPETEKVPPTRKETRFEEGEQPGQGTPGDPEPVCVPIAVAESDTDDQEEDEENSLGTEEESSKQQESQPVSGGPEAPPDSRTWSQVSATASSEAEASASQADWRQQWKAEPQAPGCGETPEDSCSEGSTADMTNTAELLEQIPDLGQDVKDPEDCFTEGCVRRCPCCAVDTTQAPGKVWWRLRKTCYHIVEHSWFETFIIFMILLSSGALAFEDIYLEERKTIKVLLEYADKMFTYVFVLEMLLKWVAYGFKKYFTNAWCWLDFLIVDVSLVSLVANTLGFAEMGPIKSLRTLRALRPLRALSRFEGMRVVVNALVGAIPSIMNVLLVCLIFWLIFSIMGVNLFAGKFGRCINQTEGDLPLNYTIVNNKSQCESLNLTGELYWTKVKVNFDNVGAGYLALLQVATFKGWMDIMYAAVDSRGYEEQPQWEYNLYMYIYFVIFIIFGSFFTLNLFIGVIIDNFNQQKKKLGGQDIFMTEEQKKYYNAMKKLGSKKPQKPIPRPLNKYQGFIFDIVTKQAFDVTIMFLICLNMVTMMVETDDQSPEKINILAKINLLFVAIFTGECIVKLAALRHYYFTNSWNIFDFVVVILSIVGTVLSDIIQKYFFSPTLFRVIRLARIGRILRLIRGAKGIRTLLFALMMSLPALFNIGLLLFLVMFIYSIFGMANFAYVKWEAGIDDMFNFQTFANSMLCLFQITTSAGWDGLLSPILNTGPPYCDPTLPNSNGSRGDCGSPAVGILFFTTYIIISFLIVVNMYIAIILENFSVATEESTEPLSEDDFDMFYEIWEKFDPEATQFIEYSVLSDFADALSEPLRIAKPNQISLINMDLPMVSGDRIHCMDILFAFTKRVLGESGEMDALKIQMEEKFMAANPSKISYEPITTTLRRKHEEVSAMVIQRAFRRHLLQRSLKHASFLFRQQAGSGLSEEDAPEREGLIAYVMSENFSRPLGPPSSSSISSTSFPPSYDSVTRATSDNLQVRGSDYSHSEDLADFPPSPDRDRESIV

Molecule O=C1Oc2ccc(-c3ccc(OC(F)(F)F)cc3)cc2CN1Cc1ccccn1 [Example 20, 3-(pyridin-2-ylmethyl)-6-(4-(trifluoromethoxy)phenyl)-3,4-dihydro-2H-benzo[e][1,3]oxazin-2-one] has an inhibition at 1 µM [1] of 29.1%, an inhibition at 10 µM [1] of 82% and an inhibition at 3 µM [2, 3] of 5.1%. It also gave an inhibition at 3 µM [2, 4] of 32.8%.

In the case of O=C1Oc2ccc(-c3ccc(OC(F)(F)F)cc3F)cc2CN1Cc1ccccn1 [Example 21, 6-(2-fluoro-4-(trifluoromethoxy)phenyl)-3-(pyridin-2-ylmethyl)-3,4-dihydro-2H-benzo[e][1,3]oxazin-2-one], the inhibition at 1 µM [1] is reported as < 5%, the inhibition at 10 µM [1] is reported as 50.8% and the inhibition at 3 µM [2, 3] is reported as < 5%. It also gave an inhibition at 3 µM [2, 4] of 23%.

With COc1cc(OC(F)(F)F)ccc1-c1ccc2c(c1)CN(Cc1ccccn1)C(=O)O2 [Example 22, 6-(2-methoxy-4-(trifluoromethoxy)phenyl)-3-(pyridin-2-ylmethyl)-3,4-dihydro-2H-benzo[e][1,3]oxazin-2-one] the inhibition at 1 µM [1] was < 5%, the inhibition at 10 µM [1] was 56.3% and the inhibition at 3 µM [2, 3] was < 5%. For the same molecule, the inhibition at 3 µM [2, 4] was 24.9%.

In the case of Cc1cc(OC(F)(F)F)ccc1-c1ccc2c(c1)CN(Cc1ccccn1)C(=O)O2 [Example 23, 6-(2-methyl-4-(trifluoromethoxy)phenyl)-3-(pyridin-2-ylmethyl)-3,4-dihydro-2H-benzo[e][1,3]oxazin-2-one], the inhibition at 1 µM [1] is reported as 5.2%, the inhibition at 10 µM [1] is reported as 75.2% and the inhibition at 3 µM [2, 3] is reported as < 5%. The inhibition at 3 µM [2, 4] was 19.4%.

Molecule O=C1Oc2ccc(-c3ccc(C(F)(F)F)cc3)cc2CN1Cc1ccccn1 [Example 24, 3-(pyridin-2-ylmethyl)-6-(4-(trifluoromethyl)phenyl)-3,4-dihydro-2H-benzo[e][1,3]oxazin-2-one] has an inhibition at 1 µM [1] of 44.9%, an inhibition at 10 µM [1] of 79.6% and an inhibition at 3 µM [2, 3] of 5.9%. For the same molecule, the inhibition at 3 µM [2, 4] was 28.5%.

In the case of CC(C)Oc1cc(C(F)(F)F)ccc1-c1ccc2c(c1)CN(Cc1ncccn1)C(=O)O2 [Example 25, 6-(2-isopropoxy-4-(trifluoromethyl)phenyl)-3-(pyrimidin-2-ylmethyl)-3,4-dihydro-2H-benzo[e][1,3]oxazin-2-one], the inhibition at 1 µM [1] is reported as 31.7%, the inhibition at 10 µM [1] is reported as 75.3% and the inhibition at 3 µM [2, 3] is reported as < 5%. It also gave an inhibition at 3 µM [2, 4] of 29.7%.

O=C1Oc2ccc(-c3ccc4c(c3)OC(F)(F)O4)cc2CN1Cc1ncccn1 [Example 26, 6-(2,2-difluorobenzo[d][1,3]dioxol-5-yl)-3-(pyrimidin-2-ylmethyl)-3,4-dihydro-2H-benzo[e][1,3]oxazin-2-one] was tested, and the inhibition at 1 µM [1] was 14.8%, the inhibition at 10 µM [1] was 66.1% and the inhibition at 3 µM [2, 3] was < 5%. For the same molecule, the inhibition at 3 µM [2, 4] was 20.7%.

CCCOc1cc(C(F)(F)F)ccc1-c1ccc2c(c1)CN(Cc1ncccn1)C(=O)O2 [Example 27, 6-(2-propoxy-4-(trifluoromethyl)phenyl)-3-(pyrimidin-2-ylmethyl)-3,4-dihydro-2H-benzo[e][1,3]oxazin-2-one] showed an inhibition at 1 µM [1] of 28.4%, an inhibition at 10 µM [1] of 77.5% and an inhibition at 3 µM [2, 3] of 8.1%. It also gave an inhibition at 3 µM [2, 4] of 32%.

CCCOc1cc(OC(F)(F)F)ccc1-c1ccc2c(c1)CN(Cc1ncccn1)C(=O)O2 [Example 28, 6-(2-propoxy-4-(trifluoromethoxy)phenyl)-3-(pyrimidin-2-ylmethyl)-3,4-dihydro-2H-benzo[e][1,3]oxazin-2-one] showed an inhibition at 1 µM [1] of 25.2%, an inhibition at 10 µM [1] of 67.4% and an inhibition at 3 µM [2, 3] of 6.9%. It also gave an inhibition at 3 µM [2, 4] of 12.9%.

Cc1ccnc(CN2Cc3cc(-c4ccc(OC(F)(F)F)cc4)ccc3OC2=O)n1 [Example 29, 3-((4-methylpyrimidin-2-yl)methyl)-6-(4-(trifluoromethoxy)phenyl)-3,4-dihydro-2H-benzo[e][1,3]oxazin-2-one] gave an inhibition at 1 µM [1] of 44.7%, an inhibition at 10 µM [1] of 86.8% and an inhibition at 3 µM [2, 3] of 14.1%. It also gave an inhibition at 3 µM [2, 4] of 36.1%.

In the case of Cc1ccnc(CN2Cc3cc(-c4ccc(C(F)(F)F)cc4)ccc3OC2=O)n1 [Example 30, 3-((4-methylpyrimidin-2-yl)methyl)-6-(4-(trifluoromethyl)phenyl)-3,4-dihydro-2H-benzo[e][1,3]oxazin-2-one], the inhibition at 1 µM [1] is reported as 49.7%, the inhibition at 10 µM [1] is reported as 87.5% and the inhibition at 3 µM [2, 3] is reported as 13.2%. It also gave an inhibition at 3 µM [2, 4] of 36.5%.

For COc1cc(OC(F)(F)F)ccc1-c1ccc2c(c1)CN(Cc1nccc(C)n1)C(=O)O2 [Example 31, 6-(2-methoxy-4-(trifluoromethoxy)phenyl)-3-((4-methylpyrimidin-2-yl)methyl)-3,4-dihydro-2H-benzo[e][1,3]oxazin-2-one], the inhibition at 1 µM [1] was 6%, the inhibition at 10 µM [1] was 53.3% and the inhibition at 3 µM [2, 3] was < 5%. The inhibition at 3 µM [2, 4] was 12.2%.

Cc1ccnc(CN2Cc3cc(-c4ccc(OC(F)(F)F)cc4F)ccc3OC2=O)n1 [Example 32, 6-(2-fluoro-4-(trifluoromethoxy)phenyl)-3-((4-methylpyrimidin-2-yl)methyl)-3,4-dihydro-2H-benzo[e][1,3]oxazin-2-one] was tested, and the inhibition at 1 µM [1] was 10.8%, the inhibition at 10 µM [1] was 61.8% and the inhibition at 3 µM [2, 3] was < 5%. It also gave an inhibition at 3 µM [2, 4] of 33.1%.

Cc1ccnc(CN2Cc3cc(-c4ccc(OC(F)(F)F)cc4C)ccc3OC2=O)n1 [Example 33, 6-(2-methyl-4-(trifluoromethoxy)phenyl)-3-((4-methylpyrimidin-2-yl)methyl)-3,4-dihydro-2H-benzo[e][1,3]oxazin-2-one] was tested, and the inhibition at 1 µM [1] was 5.5%, the inhibition at 10 µM [1] was 61.4% and the inhibition at 3 µM [2, 3] was < 5%. The inhibition at 3 µM [2, 4] was 27.8%.

In the case of COc1cc(C(F)(F)F)ccc1-c1ccc2c(c1)CN(Cc1ncccn1)C(=O)O2 [Example 34, 6-(2-methoxy-4-(trifluoromethyl)phenyl)-3-(pyrimidin-2-ylmethyl)-3,4-dihydro-2H-benzo[e][1,3]oxazin-2-one], the inhibition at 1 µM [1] is reported as 26.9%, the inhibition at 10 µM [1] is reported as 76.1% and the inhibition at 3 µM [2, 3] is reported as < 5%. For the same molecule, the inhibition at 3 µM [2, 4] was 27.7%.

With CCOc1cc(C(F)(F)F)ccc1-c1ccc2c(c1)CN(Cc1ncccn1)C(=O)O2 [Example 35, 6-(2-ethoxy-4-(trifluoromethyl)phenyl)-3-(pyrimidin-2-ylmethyl)-3,4-dihydro-2H-benzo[e][1,3]oxazin-2-one] the inhibition at 1 µM [1] was 37.6%, the inhibition at 10 µM [1] was 80.4% and the inhibition at 3 µM [2, 3] was 9.7%. For the same molecule, the inhibition at 3 µM [2, 4] was 20.2%.

In the case of O=C1Oc2ccc(-c3ccc(C(F)(F)F)cc3F)cc2CN1Cc1ncccn1 [Example 36, 6-(2-fluoro-4-(trifluoromethyl)phenyl)-3-(pyrimidin-2-ylmethyl)-3,4-dihydro-2H-benzo[e][1,3]oxazin-2-one], the inhibition at 1 µM [1] is reported as 22.8%, the inhibition at 10 µM [1] is reported as 68.7% and the inhibition at 3 µM [2, 3] is reported as 5.9%. For the same molecule, the inhibition at 3 µM [2, 4] was 11.5%.
